Earlier results as cited in publication PMC7770833, “Design, Synthesis, and Biological Evaluation of a Series of Oxazolone Carboxamides as a Novel Class of Acid Ceramidase Inhibitors” (Journal of Medicinal Chemistry, 2020).
Where two headings read alike, the source gives them in different places.

Experiments:
[1] = target: human ceramidase (hCDase); settings: in SKOV3 cells; cited from earlier work
AC [2] = settings: HaCaT cell lysates; cited from earlier work
AC [3] = settings: HL-60 cell lysates; cited from earlier work

In the case of `COc1ccc(/C=C/C(=O)c2c(-c3ccccc3)c3cc(C)ccc3[nH]c2=O)cc1` [Ceranib-1], the IC50 [1] is given as 55 µM.
In the case of `CCCCCCCCCCCCCC(=O)N[C@H](CO)[C@H](O)c1ccc([N+](=O)[O-])cc1` [Compound B13], the IC50 (AC [2]) is given as roughly 10 µM.
For `CCCCCCCCCCCCCC(=O)N[C@H](C)[C@@H](O)c1ccccc1` [D-e-MAPP, D-erithro-2-(N-myristoylamino)-1-phenyl-1-propanol], the IC50 (AC [3]) is given as greater than 500 µM.
